# PubChem BioAssay (NCI)
#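 A five-concentration, 48-hour dose response in 96-well plates underlies each endpoint, interpolated linearly between surrounding concentrations. TGI denotes the concentration required for complete inhibition of growth.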
# Experiments:
# Assay in all cases: NCI anticancer screen, dose series, 48 h
# [1] = test system: A549 NSCLC
# [2] = test system: 786-0 renal
# [3] = test system: HOP-62 NSCLC
# [4] = test system: ACHN renal
# [5] = test system: SF-539 CNS
# [6] = test system: HCT-116 colon
# [7] = test system: IGROV1 ovarian
# [8] = test system: EKVX NSCLC
# [9] = test system: SF-268 CNS
# [10] = test system: SW-620 colon
# [11] = test system: SNB-19 CNS
# [12] = test system: T-47D breast
# [13] = test system: NCI-H23 lung
# [14] = test system: SF-295 CNS
# [15] = test system: NCI-H226 lung
# [16] = test system: COLO 205 colon
# [17] = test system: KM12 colon
# [18] = test system: NCI-H460 lung
# [19] = test system: HCT-15 colon
# [20] = test system: UO-31 renal
# [21] = test system: M14 melanoma
# [22] = test system: OVCAR-5 ovarian
# [23] = test system: MALME-3M melanoma
# [24] = test system: RPMI-8226 leukemia
# [25] = test system: OVCAR-4 ovarian
# [26] = test system: CAKI-1 renal
# [27] = test system: RXF 393 renal
# [28] = test system: NCI-H522 lung
# [29] = test system: SR leukemia
# [30] = test system: MCF7 breast
# [31] = test system: K-562 leukemia
# [32] = test system: LOX IMVI melanoma
# [33] = test system: SK-MEL-5 melanoma
# [34] = test system: HS 578T breast
# [35] = test system: MDA-MB-435
# [36] = test system: DU-145 prostate
# [37] = test system: HT29 colon
# [38] = test system: SK-OV-3 ovarian
# [39] = test system: SK-MEL-28 melanoma
# [40] = test system: NCI/ADR-RES ovarian
# [41] = test system: TK-10 renal
# [42] = test system: SNB-75 CNS
# [43] = test system: BT-549 breast
# [44] = test system: HCC-2998 colon
# [45] = test system: UACC-62 melanoma
# [46] = test system: MDA-MB-231 breast
# [47] = test system: OVCAR-8 ovarian
# [48] = test system: MDA-N
# [49] = test system: U251 CNS
# [50] = test system: OVCAR-3 ovarian
# [51] = test system: PC-3 prostate
# [52] = test system: HOP-92 NSCLC
# [53] = test system: MOLT-4 leukemia
# [54] = test system: HL-60(TB) leukemia
smiles,measurement,setting,value
COc1ccc(-c2cc(-c3ccccc3)n(C3OC(COC(C)=O)C(OC(C)=O)C(OC(C)=O)C3OC(C)=O)c(=S)c2C#N)cc1 (centres undefined),TGI,[1],39.3 µM
same,TGI,[2],12.4 µM
same,TGI,[3],14.4 µM
same,TGI,[4],29.7 µM
same,TGI,[5],14.4 µM
same,TGI,[6],19.2 µM
same,TGI,[7],32 µM
same,TGI,[8],31.9 µM
same,TGI,[9],58.2 µM
same,TGI,[10],> 100 µM
same,TGI,[11],23.1 µM
same,TGI,[12],25.7 µM
same,TGI,[13],47.7 µM
same,TGI,[14],17.9 µM
same,TGI,[15],23.1 µM
same,TGI,[16],23.4 µM
same,TGI,[17],44.7 µM
same,TGI,[18],22.2 µM
same,TGI,[19],> 100 µM
same,TGI,[20],21.3 µM
same,TGI,[21],20.5 µM
same,TGI,[22],29.2 µM
same,TGI,[23],23.2 µM
same,TGI,[24],16.7 µM
same,TGI,[25],8.06 µM
same,TGI,[26],19 µM
same,TGI,[27],23.2 µM
same,TGI,[28],18.5 µM
same,TGI,[29],37.5 µM
same,TGI,[30],> 100 µM
same,TGI,[31],> 100 µM
same,TGI,[32],> 100 µM
same,TGI,[33],19.4 µM
same,TGI,[34],23.5 µM
same,TGI,[35],19.4 µM
same,TGI,[36],23.9 µM
same,TGI,[37],18.7 µM
same,TGI,[38],32.9 µM
same,TGI,[39],25.1 µM
same,TGI,[40],50.5 µM
same,TGI,[41],40.7 µM
same,TGI,[42],19.2 µM
same,TGI,[43],34.9 µM
same,TGI,[44],> 100 µM
same,TGI,[45],16.4 µM
same,TGI,[46],16.4 µM
same,TGI,[47],19.7 µM
same,TGI,[48],25.5 µM
same,TGI,[49],18.7 µM
same,TGI,[50],23.5 µM
same,TGI,[51],32.3 µM
same,TGI,[52],15.5 µM
same,TGI,[53],> 100 µM
same,TGI,[54],13.4 µM
